Key:
autophagy markers = test: Autophagy markers in protein extracts of hippocampus and prefrontal cortex after acute antidepressant injection; assay type: in vivo, mice; conditions: FKBP51 WT versus FKBP51 KO mice; 10 mg kg-1
Experimental: Western blot analysis was performed on eluates from ColPs or with protein extracts from cells or tissue. Protein extracts were obtained by lysing cells or tissue (prelysed as described in the paragraph before) in 62.5 mM Tris, 2% SDS and 10% sucrose, supplemented with protease (Sigma, P2714) and phosphatase (Roche, 04906837001) inhibitor cocktail. Samples were sonicated and heated at 95 °C for 5 min. Proteins were separated by SDS-PAGE and electro-transferred onto nitrocellulose membranes. Blots were placed in Tris-buffered saline, supplemented with 0.05% Tween (Sigma, P2287) and 5% non-fat milk for 1 h at room temperature and then incubated with primary antibody (diluted in TBS/0.05% Tween) overnight at 4 °C. The following primary antibodies were used: Beclin1 (1:1000, Cell Signaling, #3495), Atg12 (1:1000, Cell Signaling #2010), LC3B-I/II (1:1000, Cell Signaling, #2775), FLAG (1:7000, Rockland, 600-401-383), FKBP51 (1:1000, Bethyl, A301-430A), Akt (1:1000, Cell Signaling, #4691), pAkt (1:1000, Ser473, T308, 1:1000, Cell Signaling, #4058, #9275), Actin (1:5000, Santa Cruz Biotechnologies, sc-1616), Skp2, myc (Addgene, 19947), GFP (santa cruz biotechnologies, sc-8334), p27 (cell signaling technologies, 3686), pULK,(S757, cell signaling technologies, 6888) APP-CTF (sigma-aldrich, A8717), DNMT1 (1:1000, Imgenex, IMG-261A), phospho-DNMT1 (S154), (1:1000, Abnova, PAB4924), ptau (S622; Santa Cruz Biotechnologies, #sc-16938).
Subsequently, blots were washed and probed with the respective horseradish peroxidase- or fluorophore-conjugated secondary antibody for 1 h at room temperature. The immuno-reactive bands were visualized either using ECL detection reagent (Millipore, Billerica, MA, USA, WBKL0500) or directly by excitation of the respective fluorophore. Determination of the band intensities were performed with BioRad, ChemiDoc MP, or X-ray-films.
The Fkbp51^-/- mouse line was previously generated (Touma C et al. (2011) Biol. Psychiatry 70: 928-936) and fully backcrossed to C57/BI6. […] Hippocampus and prefrontal cortex were extracted.

Beclin1 mRNA = Beclin1 mRNA expression by qPCR in rat cortical astrocytes; assay type: cell-based; conditions: 10µM for 72h; vehicle set to 1
Experimental: (§1) Enriched astroglial cultures were prepared from postnatal day 1 rat pups (Sprague-Dawley, Charles River, Sulzfeld, Germany) and handled as described by Attwood BK et al. (2011) Nature 473: 372-375 and Hartmann J et al. (2012) Neuropharmacology 62: 332-339.
Total RNA was isolated from astroglial cells according to the manufacturer's protocol of NucleoSpin RNA II (Macherey-Nagel, Germany). In total, 300 ng of purified RNA was reverse transcribed using random primers (Promega) and Omniscript® Reverse Transcriptase (Qiagen). Based on the LightCycler® System (Roche Applied Science, Germany) and SYBR green detection (QuantiFast® SYBR Green; Qiagen), quantitative assessment of Beclin1 cDNA levels were performed. b-Actin PCR was performed serving as endogenous control for normalization. The primers used were: for Beclin1: antisense - 5'-[…]-3' sense - 5'-[…]-3'; and for β-Actin: antisense - 5'-[…]-3', sense-5'-[…]-3'. Relative changes of gene expression were calculated using the comparative ΔΔCT method (Livak and Schmittgen, METHODS 25, 402-408, 2001). Detection of viral RNA by real-time PCR was as recently described (Corman et al. (2014) Journal of Clinical Virology 60: 168-171).
Beclin1 mRNA expression levels were determined by qPCR. HEK cells were treated either with proteasome inhibitor MG132 or with vehicle for 5h and Beclin1 protein levels were determined by Western analysis. Furthermore Co-immunoprecipitations were performed with Beclin1 antibody in HEK cell lysates with ectopic Ub-GFP.

[1] = Forced swim test after acute antidepressant injection in Fkbp51+/+ and Fkbp51-/- mice; assay type: in vivo; conditions: FKBP51 WT versus FKBP51 KO mice; 10 mg kg-1 intraperitoneal
Experimental: The Fkbp51^-/- mouse line was previously generated (Touma C et al. (2011) Biol. Psychiatry 70: 928-936) and fully backcrossed to C57/BI6. […] Hippocampus and prefrontal cortex were extracted. […] Male mice (age 10-16 weeks) were injected intraperitoneally with a single dose of either AMI (10 mg kg^-1) or saline vehicle. […] Another subgroup (WT n=5, KO n=5) was sacrificed, and brain tissue and blood was sampled for analysis of drug concentrations. […] The inventors performed an additional forced swim test administering the antidepressant amitriptyline in FKBP51 WT and FKBP51 KO mice (Fig. 1 B).

Beclin1 [2] = test: Western analysis of Beclin1 and p27 protein levels in HEK 293 and astrocytic lysates; assay type: cell-based; conditions: HEK 293 and primary rat cortical astrocytic lysates
Experimental: (§2) Western blot analysis was performed on eluates from ColPs or with protein extracts from cells or tissue. Protein extracts were obtained by lysing cells or tissue (prelysed as described in the paragraph before) in 62.5 mM Tris, 2% SDS and 10% sucrose, supplemented with protease (Sigma, P2714) and phosphatase (Roche, 04906837001) inhibitor cocktail. Samples were sonicated and heated at 95 °C for 5 min. Proteins were separated by SDS-PAGE and electro-transferred onto nitrocellulose membranes. Blots were placed in Tris-buffered saline, supplemented with 0.05% Tween (Sigma, P2287) and 5% non-fat milk for 1 h at room temperature and then incubated with primary antibody (diluted in TBS/0.05% Tween) overnight at 4 °C. […]

soluble Aβ = test: Aβ42 ELISA in Alzheimer model mice (TG2576); assay type: in vivo, TG2576 animals; conditions: 5mg/kg daily intraperitoneal for 3 months
Experimental: TG2576 animals (used as Alzheimer's disease model, overexpress a mutant form of amyloid precursor protein (APP)) were chronically treated with daily intraperitoneal injections of SMIP004 (N-(4-butyl-2-methylphenyl)acetamide; 5mg/kg) or vehicle (0.9% NaCl; 1.25% DMSO) for 3 months. Brain and other tissue was analyzed for markers of autophagy and for the levels of soluble beta-amyloid (Aβ). It is commonly assumed that Aβ agglomerates are causally linked to Alzheimer's disease.

Beclin1 [3] = test: Protein levels in brain extracts (hippocampus, prefrontal cortex) of SMIP004-treated mice; assay type: in vivo, C57BL/6 mice; conditions: various cell types; brain lysates of animals treated with SMIP004 (0.5 or 5 mgkg-1)
Experimental: as §2
Furthermore the neuronal activity in CA1 hippocampus was measured after treatment with SMIP004 (Figure 7). […] And protein levels were determined in extracts of the hippocampus and the prefrontal cortex.

Beclin1 [4] = test: Western analysis of Beclin1 protein level in primary rat cortical astrocytes; assay type: cell-based
Experimental: as §2

[5] = system: primary rat cortical astrocytes; test: MTT cytotoxicity assay in primary rat cortical astrocytes; assay type: cell-based
Experimental: as §1
In an effort to find a small molecule to inhibit the E3 ligase Skp2 three promising candidates of published chemical genetic screens were tested on cellular toxicity and its potency to stabilise Beclin1. Cytotoxicity was determined by an MTT assay performed in HEK 293 cell and in primary rat cortical astrocytes. Effects of small compounds on Beclin1 and p27 protein levels were determined by Western analysis of HEK 293 primary rat cortical astrocytic lysates (see Fig. 6).

autophagy = test: Autophagy markers (Western blot, Beclin1 immunoprecipitation) in brain extracts of Alzheimer model mice (TG2576); assay type: in vivo, TG2576 animals; conditions: 5mg/kg daily intraperitoneal for 3 months
Experimental: (§3) For the precipitation of Beclin1 from brain tissue (Fig. 15), the tissue was first homogenized (300µL of Buffer I (50 mM Tris (pH 7.5), 150 mM NaCl, 5 mM EDTA, Protease inhibitor Mix (Sigma , P2714), Phosphatase Inhibitor (Roche, 04906837001)) followed by sonication and addition of 300µL of Buffer II (50 mM Tris (pH 7.5), 150 mM NaCl, 1% NP40, 1% Deoxycholate, 2% SDS, Protease inhibitor Mix (Sigma , P2714), Phosphatase Inhibitor (Roche, 04906837001)).
(§4) Western blot analysis was performed on eluates from ColPs or with protein extracts from cells or tissue. Protein extracts were obtained by lysing cells or tissue (prelysed as described in the paragraph before) in 62.5 mM Tris, 2% SDS and 10% sucrose, supplemented with protease (Sigma, P2714) and phosphatase (Roche, 04906837001) inhibitor cocktail. Samples were sonicated and heated at 95 °C for 5 min. Proteins were separated by SDS-PAGE and electro-transferred onto nitrocellulose membranes. […]
(§5) TG2576 animals (used as Alzheimer's disease model, overexpress a mutant form of amyloid precursor protein (APP)) were chronically treated with daily intraperitoneal injections of SMIP004 (N-(4-butyl-2-methylphenyl)acetamide; 5mg/kg) or vehicle (0.9% NaCl; 1.25% DMSO) for 3 months. Brain and other tissue was analyzed for markers of autophagy and for the levels of soluble beta-amyloid (Aβ). […]

CA1 neuronal activity = test: Voltage-sensitive dye imaging (VSDI) of evoked CA1 neuronal activity in brain slices; conditions: 10 µM SMIP004, 1 h after wash in; slices from C57BL/6 mice
Excerpt: Brain slices were obtained from 11-18 week-old male FKBP51+/+ and FKBP51-/- litter mates (Fig. 1) or from BL6 mice (Fig. 7). […] Four acquisitions subsequently recorded at intervals of 5 s were averaged. Neuronal activity was evoked by square pulse electrical stimuli (200 µs pulse width) delivered via a custom-made monopolar tungsten electrode to the Schaffer collateral-commissural pathway. The circular ROI was placed into the CA1 stratum radiatum near the stimulation electrode. The ROI also covered a part of the adjacent CA1 stratum pyramidale (Fig. 1 B). The intensity of voltage stimulation was adjusted to produce FDSs with peak amplitudes of ~30% of the highest attainable value.
Hippocampal CA3-CA1 synapses were electrically stimulated in brain slices from Fkbp51^+/+ and Fkbp51^-/- mice, and CA1 neuronal activity was monitored by means of voltagesensitive dye imaging (VSDI).

Tail suspension test = assay type: in vivo; conditions: C57BL/6 mice; SMIP004 0.5 or 5 mgkg-1; paroxetine 10 mgkg-1 as comparator
APP-CTF = APP-CTF Western blot in brain extracts of Alzheimer model mice (TG2576); assay type: in vivo, TG2576 animals; conditions: 5mg/kg daily intraperitoneal for 3 months
Experimental: as §3, §4, §5

Row | Structure (SMILES) | effects on autophagy markers (autophagy markers) | Beclin1 mRNA expression level (Beclin1 mRNA) | behavioral effects, forced swim test [1] | stabilization of Beclin1 (protein level, Western analysis) (Beclin1 [2]) | levels of soluble Aβ in plasma and CSF (soluble Aβ) | Beclin1 stabilization confirmed in other cell types and mice brain lysates (Beclin1 [3]) | effect on Beclin1 protein level (Beclin1 [4]) | cytotoxic effects (MTT assay) [5] | induction of autophagy (p27, Beclin1, Atg12, pULK S757; Beclin1 ubiquitinylation, Vps34 association) (autophagy) | synaptic neurotransmission (CA1 FDSs, VSDI) (CA1 neuronal activity) | antidepressant-like behavior in the tail suspension test (Tail suspension test) | levels of APP-CTF in the brain (APP-CTF)
1 | CN(C)CCC=C1c2ccccc2CCc2ccccc21 [amitriptyline] | only observed in FKBP51 WT mice but not in FKBP51 KO mice | do not change Beclin1-mRNA | only observed in FKBP51 WT mice but not in FKBP51 KO mice |  |  |  |  |  |  |  |  | 
2 | CNCCC(Oc1ccc(C(F)(F)F)cc1)c1ccccc1 (stereo not shown) [fluoxetine] |  | do not change Beclin1-mRNA |  |  |  |  |  |  |  |  |  | 
3 | CCCCc1ccc(NC(C)=O)c(C)c1 [SMIP004, N-(4-butyl-2-methylphenyl)acetamide] |  |  |  | potent stabilizer of Beclin1 | reduces the levels of soluble Aβ in plasma and CSF | confirmed in various cell types as well as in mice brain lysates | particularly strong | very low cytotoxic effects | induces autophagy, independently of the mTOR-ULK1 cascade | increased synaptic neurotransmission similarly to paroxetine | antidepressant-like behavior comparable to animals treated with paroxetine | reduces the levels of APP-CTF in the brain

From patent EP2954896A1, “Small molecule inhibitors of the E3 Ligase Skp2 in depression and other diseases” (Max-Planck-Gesellschaft zur Förderung der Wissenschaften …, priority 2014, dated 2015)
